{
  "source": "paper PMC7210949",
  "about": "“Flexibility of intrinsically disordered degrons in AUX/IAA proteins reinforces auxin co-receptor assemblies” (Nature Communications, 2020)",
  "assay_in_all_cases": "[3H]IAA saturation radioligand binding",
  "key": {"TIR1·IAA (12-12-12-12-7)": {"biological_target": "T1, TIR1·IAA (12-12-12-12-7)", "T1 construct": "IAA12 with its PB1 domain replaced by that of IAA7 (one seamless polypeptide: DI, linker, core degron, degron tail from IAA12); GST fusion from E. coli; with SKP1-like protein 1A", "parameters": "species or system Arabidopsis thaliana", "settings": "labelled compound; 0.01 µM ASK1·TIR1, 0.3 µM GST-AUX/IAA chimera, on ice 1 h; one-site fit; n = 3"}, "ASK1·TIR1·IAA12": {"biological_target": "T2, ASK1·TIR1·IAA12 (Arabidopsis thaliana, UniProt Q38830+Q570C0)", "T2 construct": "full-length IAA12 as GST fusion from E. coli, GST kept; with SKP1-like protein 1A", "T2 sequence (Q570C0 1-594)": "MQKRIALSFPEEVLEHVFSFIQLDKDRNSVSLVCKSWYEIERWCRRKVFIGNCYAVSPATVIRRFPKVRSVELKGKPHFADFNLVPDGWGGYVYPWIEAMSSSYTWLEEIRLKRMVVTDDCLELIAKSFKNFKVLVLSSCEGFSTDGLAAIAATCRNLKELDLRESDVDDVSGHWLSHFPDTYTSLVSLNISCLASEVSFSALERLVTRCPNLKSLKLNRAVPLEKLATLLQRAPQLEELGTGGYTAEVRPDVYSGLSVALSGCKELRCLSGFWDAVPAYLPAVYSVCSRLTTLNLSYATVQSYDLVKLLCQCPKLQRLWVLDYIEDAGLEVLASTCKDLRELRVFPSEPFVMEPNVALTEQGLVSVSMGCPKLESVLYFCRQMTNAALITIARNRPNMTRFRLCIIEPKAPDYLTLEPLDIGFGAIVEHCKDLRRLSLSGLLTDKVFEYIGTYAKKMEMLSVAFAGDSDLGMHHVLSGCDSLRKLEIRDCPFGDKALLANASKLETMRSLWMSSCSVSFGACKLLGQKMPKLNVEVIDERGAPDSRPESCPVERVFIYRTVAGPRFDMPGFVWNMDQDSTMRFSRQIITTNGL", "T2 sequence (Q38830 1-239)": "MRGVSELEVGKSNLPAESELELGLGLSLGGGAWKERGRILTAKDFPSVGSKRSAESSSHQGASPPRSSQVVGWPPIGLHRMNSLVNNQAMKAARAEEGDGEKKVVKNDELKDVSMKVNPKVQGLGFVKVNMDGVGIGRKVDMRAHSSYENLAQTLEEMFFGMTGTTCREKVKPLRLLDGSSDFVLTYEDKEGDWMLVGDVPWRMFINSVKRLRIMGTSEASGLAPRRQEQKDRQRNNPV", "T2 sequence (Q39255 1-160 partner)": "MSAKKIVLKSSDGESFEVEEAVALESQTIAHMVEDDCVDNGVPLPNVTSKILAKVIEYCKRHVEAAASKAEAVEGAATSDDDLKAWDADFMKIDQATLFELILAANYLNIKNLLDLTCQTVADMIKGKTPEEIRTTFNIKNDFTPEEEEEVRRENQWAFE"}, "TIR1·IAA (7-7-7-7-12)": {"biological_target": "T3, TIR1·IAA (7-7-7-7-12)", "T3 construct": "IAA7 with its PB1 domain replaced by that of IAA12 (one seamless polypeptide: DI, linker, core degron, degron tail from IAA7); GST fusion from E. coli; with SKP1-like protein 1A", "parameters": "species or system Arabidopsis thaliana", "settings": "labelled compound; 0.01 µM ASK1·TIR1, 0.3 µM GST-AUX/IAA chimera, on ice 1 h; one-site fit; n = 2"}, "TIR1·IAA (7-7-7-12-7)": {"biological_target": "T4, TIR1·IAA (7-7-7-12-7)", "T4 construct": "IAA7 with its degron tail replaced by that of IAA12 (one seamless polypeptide: DI, linker, core degron, PB1 from IAA7); GST fusion from E. coli; with SKP1-like protein 1A", "parameters": "species or system Arabidopsis thaliana", "settings": "labelled compound; 0.01 µM ASK1·TIR1, 0.3 µM GST-AUX/IAA chimera, on ice 1 h; one-site fit; n = 2"}, "TIR1·IAA (12-12-12-7-12)": {"biological_target": "T5, TIR1·IAA (12-12-12-7-12)", "T5 construct": "IAA12 with its degron tail replaced by that of IAA7 (one seamless polypeptide: DI, linker, core degron, PB1 from IAA12); GST fusion from E. coli; with SKP1-like protein 1A", "parameters": "species or system Arabidopsis thaliana", "settings": "labelled compound; 0.01 µM ASK1·TIR1, 0.3 µM GST-AUX/IAA chimera, on ice 1 h; one-site fit; n = 3"}, "ASK1·TIR1·IAA7": {"biological_target": "T6, ASK1·TIR1·IAA7 (Arabidopsis thaliana, UniProt Q38825+Q570C0)", "T6 construct": "full-length IAA7 as GST fusion from E. coli, GST kept; with SKP1-like protein 1A", "T6 sequence (Q570C0 1-594)": "T2 sequence (Q570C0 1-594)", "T6 sequence (Q38825 1-243)": "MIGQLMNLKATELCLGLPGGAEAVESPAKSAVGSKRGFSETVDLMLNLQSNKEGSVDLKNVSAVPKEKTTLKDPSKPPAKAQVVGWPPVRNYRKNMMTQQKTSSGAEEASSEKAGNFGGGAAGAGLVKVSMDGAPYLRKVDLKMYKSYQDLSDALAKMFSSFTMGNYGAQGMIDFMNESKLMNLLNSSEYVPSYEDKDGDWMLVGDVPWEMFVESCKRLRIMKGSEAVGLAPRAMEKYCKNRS", "T6 sequence (Q39255 1-160 partner)": "T2 sequence (Q39255 1-160 partner)"}},
  "data": [
    {"compound": "O=C(O)Cc1c[nH]c2ccccc12", "note": "[[3H]IAA]", "values": [
      {"measurement": "Kd", "setting": "TIR1·IAA (12-12-12-12-7)", "result": "~0.133", "unit": "µM"},
      {"measurement": "Kd", "setting": "ASK1·TIR1·IAA12", "result": "~0.226", "unit": "µM"},
      {"measurement": "Kd", "setting": "TIR1·IAA (7-7-7-7-12)", "result": "~0.043", "unit": "µM"},
      {"measurement": "Kd", "setting": "TIR1·IAA (7-7-7-12-7)", "result": "~0.057", "unit": "µM"},
      {"measurement": "Kd", "setting": "TIR1·IAA (12-12-12-7-12)", "result": "~0.079", "unit": "µM"},
      {"measurement": "Kd", "setting": "ASK1·TIR1·IAA7", "result": "~0.02", "unit": "µM"}
    ]}
  ]
}
